Source: US4259235A, “Tricyclic nitrogenous compounds having string plant growth regulating properties” (BASF Aktiengesellschaft, priority 1977, dated 1981)
Read-outs that look alike come from different tables or passages of the source.

Legend:
Cynodon dact. (seed) = assay: Herbicidal action, pre- and postemergence application in the greenhouse; type: in vivo, Cynodon dactylon
Protocol: (§1) Plastic flowerpots having a volume of 300 cm^3 were filled with a sandy loam and the test plants placed therein (either as seed, as vegetatively reproduced species, or as potted plants, e.g., vines). For preemergence treatment, the active ingredients were suspended or emulsified in water as vehicle and sprayed onto the surface of the soil immediately after sowing by means of finely distributing nozzles. The potted vines were treated by spraying them with the correspondingly diluted liquor. For postemergence treatment, the agents were, as stated above, sprayed in water onto the leaves of the test plants, some liquor also falling onto the soil. In some special cases, solid active ingredients were first dissolved in dimethylformamide and then applied in a total liquor amount of 400 liters of water per hectare. For the postemergence treatment, the plants were first grown to a height of from 3 to 10 cm before being treated. With grasses, the first growth was cut, and the new growth treated 2 to 3 days after cutting. The temperature requirements of the plants were taken into account by placing them in cooler or warmer sections of the greenhouse. The experiments were run for from 4 to 6 weeks, during which time the plants were tended and their reaction to the various treatments was assessed.
(§2) The application rates are given in kg/ha of active ingredient, regardless of the method of application and the amount of water used.
(§3) A 0 to 100 scale was used for the evaluation, 0 denoting normal emergence or no damage (or no inhibition), and 100 denoting non-emergence or complete destruction of the plants. A distinction should be made in the influence on growth between desired changes without any appreciable disadvantageous phytotoxic effects (e.g., purely growth-regulating effects) and those of a phytotoxic herbicical character.

Sinapis alba = assay: as above; type: in vivo; settings: post-emergence, read-out: % damage
Protocol: as §1, §2, §3

Lolium mult. = assay: as above; type: in vivo; settings: for pest or weed control at 3000 g/ha: Lolium, post-emergence, read-out: % damage
Protocol: as §1, §2, §3

Euph. gen. = assay: as above; type: in vivo, Euphorbia geniculata
Protocol: as §1, §2, §3

Mentha piper. = assay: as above; type: in vivo; settings: post-emergence; 3.0 kg/ha POST; read-out: % damage
Protocol: as §1, §2, §3

Viola tric. = assay: as above; type: in vivo; settings: 3.0 kg/ha POST
Protocol: as §1, §2, §3

Ipom. spp. = assay: as above; type: in vivo, Ipomoea spp.; settings: Ipomoea, post-emergence; 3.0 kg/ha POST; read-out: % damage
Protocol: as §1, §2, §3

Poa prat. = assay: Shoot inhibition, pre- and postemergence treatment (table 28); type: in vivo; settings: Poa pratensis, post-emergence, read-out: % shoot inhibition
Protocol: as §1, §2, §3

Tritic. aestiv. = assay: as above; type: in vivo; settings: post-emergence
Protocol: as §1, §2, §3

Glycine max = assay: as above; type: in vivo; settings: post-emergence, read-out: % shoot inhibition
Protocol: as §1, §2, §3

Euphorbia geniculata [1] = assay: Shoot growth, postemergence treatment in the greenhouse (table 26); type: in vivo
Protocol: as §1, §2, §3

Hordeum vulgare = assay: as above; type: in vivo
Protocol: as §1, §2, §3

Cynodon dactylon = assay: as above; type: in vivo; settings: from seed
Protocol: as §1, §2, §3

Poa pratensis [2] = assay: as above; type: in vivo
Protocol: as §1, §2, §3

Poa pratensis [3] = assay: Growth inhibition in lawns, preemergence treatment in the greenhouse; type: in vivo; settings: Poa pratensis, pre-emergence, read-out: % growth inhibition after emergence
Protocol: as §1, §2, §3

Euphorbia genic. = assay: Shoot inhibition, pre- and postemergence treatment (table 28); type: in vivo, Euphorbia geniculata; settings: post-emergence, read-out: % shoot inhibition
Protocol: as §1, §2, §3

Cynodon dactyl. = assay: as above; type: in vivo, Cynodon dactylon; settings: post-emergence, read-out: % shoot inhibition
Protocol: as §1, §2, §3

Arachys hypog. = assay: as above; type: in vivo, Arachys hypogaea; settings: post-emergence, read-out: % shoot inhibition
Protocol: as §1, §2, §3

Hordeum vulg. = assay: as above; type: in vivo, Hordeum vulgare; settings: post-emergence
Protocol: as §1, §2, §3

Euphorbia geniculata [4] = assay: Inhibition of shoot growth by growth regulators, pre- and postemergence (table 27); type: in vivo; settings: Euphorbia heterophylla, post-emergence, read-out: shoot growth inhibition (%)
Protocol: as §1, §2, §3

Medicago sativa = assay: as above; type: in vivo; settings: post-emergence, read-out: shoot growth inhibition (%)
Protocol: as §1, §2, §3

Cyper. esc. = assay: Removal and inhibition of unwanted plants, preemergence, greenhouse; type: in vivo, Cyperus esculentus
Protocol: as §1, §2, §3

Solan. nig. = assay: as above; type: in vivo, Solanum nigrum
Protocol: as §1, §2, §3

Echin. c.g. = assay: as above; type: in vivo, Echinochloa crus galli
Protocol: as §1, §2, §3

Setar. spp. = assay: as above; type: in vivo
Protocol: as §1, §2, §3

Lam. spp. = assay: as above; type: in vivo
Protocol: as §1, §2, §3

[5] = read-out: % shoot inhibition, 1.0 kg/ha POST
[6] = read-out: % shoot inhibition, 1.0 kg/ha PRE
[7] = read-out: % shoot inhibition, 2.0 kg/ha POST
[8] = read-out: % shoot inhibition, 2.0 kg/ha PRE

Q: With `BrC1C(Br)C2CC1C1N=NC21` (stereo not shown) [drawing 442] as the compound, how does the “% damage” value (Cynodon dact. (seed); 1.0 kg/ha PRE) read?
A: 100%

Q: And the pest or weed control at 3000 g/ha (Sinapis alba; 3.0 kg/ha POST)?
A: 100%

Q: And the pest or weed control at 3000 g/ha (Sinapis alba; 3.0 kg/ha PRE)?
A: 70%

Q: And the pest or weed control at 3000 g/ha (Lolium mult.; 3.0 kg/ha POST)?
A: 100%

Q: What about the pest or weed control at 3000 g/ha (Lolium mult.; 3.0 kg/ha PRE) of the same compound?
A: 40%

Q: What about the “% damage” value (Euph. gen.; 1.0 kg/ha PRE) of the same compound?
A: 90%

Q: How did the pest or weed control at 3000 g/ha (Sinapis alba; 3.0 kg/ha PRE) turn out when `OC1C(O)C2CC1C1N=NC21` (stereo not shown) was run?
A: 80%

Q: And the pest or weed control at 3000 g/ha (Lolium mult.; 3.0 kg/ha POST)?
A: 95%

Q: What about the pest or weed control at 3000 g/ha (Lolium mult.; 3.0 kg/ha PRE) of the same compound?
A: 90%

Q: What about the pest or weed control at 3000 g/ha (Mentha piper.) of the same compound?
A: 100%

Q: And the “% damage” value (Viola tric.)?
A: 95%

Q: What about the pest or weed control at 3000 g/ha (Ipom. spp.) of the same compound?
A: 100%

Q: For `ClC1C(Cl)C2CC1C1N=NC21` (stereo not shown), which “% damage” value (Cynodon dact. (seed); 1.0 kg/ha PRE) is on record?
A: 90%

Q: And the “% damage” value (Cynodon dact. (seed); 2.0 kg/ha POST)?
A: 100%

Q: What about the “% damage” value (Lolium mult.; 3.0 kg/ha POST) of the same compound?
A: 100%

Q: What about the pest or weed control at 3000 g/ha (Lolium mult.) of the same compound?
A: 100%

Q: What about the “% damage” value (Euph. gen.; 1.0 kg/ha PRE) of the same compound?
A: 70%

Q: And the “% damage” value (Euph. gen.; 2.0 kg/ha POST)?
A: 95%

Q: How did the inhibition at 1000 g/ha (Poa prat.) turn out when `C[N+](C)(C)CCCl` [[ClCH2CH2N(C⊕H3)3]⊖ Cl, reference compound] was run?
A: 0%

Q: And the inhibition at 2000 g/ha (Poa prat.)?
A: 0%

Q: And the inhibition at 1000 g/ha (Tritic. aestiv.; [5])?
A: 30%

Q: And the inhibition at 1000 g/ha (Tritic. aestiv.; [6])?
A: 20%

Q: What about the inhibition at 2000 g/ha (Tritic. aestiv.; [7]) of the same compound?
A: 30%

Q: And the inhibition at 2000 g/ha (Tritic. aestiv.; [8])?
A: 20%

Q: What about the inhibition at 1000 g/ha (Glycine max) of the same compound?
A: 0%

Q: And the inhibition at 2000 g/ha (Glycine max)?
A: 0%

Q: And the Shoot length (Euphorbia geniculata [1]; 0.5 kg/ha)?
A: 12.5 cm

Q: What about the Shoot length (Euphorbia geniculata [1]; 1.0 kg/ha) of the same compound?
A: 13 cm

Q: What about the Shoot length (Euphorbia geniculata [1]; 2.0 kg/ha) of the same compound?
A: 13 cm

Q: What about the Shoot length (Hordeum vulgare; 0.5 kg/ha) of the same compound?
A: 14 cm

Q: What about the Shoot length (Hordeum vulgare; 1.0 kg/ha) of the same compound?
A: 14 cm

Q: And the Shoot length (Hordeum vulgare; 2.0 kg/ha)?
A: 14 cm

Q: And the Shoot length (Cynodon dactylon; 1.0 kg/ha)?
A: 7 cm

Q: And the Shoot length (Cynodon dactylon; 2.0 kg/ha)?
A: 7 cm

Q: And the Shoot length (Poa pratensis [2]; 1.0 kg/ha)?
A: 20 cm

Q: And the Shoot length (Poa pratensis [2]; 2.0 kg/ha)?
A: 19 cm

Q: And the inhibition at 500 g/ha (Poa pratensis [3]; 0.5 kg/ha)?
A: 0%

Q: What about the inhibition at 1000 g/ha (Poa pratensis [3]; 1.0 kg/ha) of the same compound?
A: 10%

Q: And the inhibition at 2000 g/ha (Poa pratensis [3]; 2.0 kg/ha)?
A: 10%

Q: And the inhibition at 4000 g/ha (Poa pratensis [3]; 4.0 kg/ha)?
A: 10%

Q: What about the inhibition at 1000 g/ha (Euphorbia genic.) of the same compound?
A: 0%

Q: And the inhibition at 2000 g/ha (Euphorbia genic.)?
A: 0%

Q: What about the inhibition at 1000 g/ha (Cynodon dactyl.) of the same compound?
A: 0%

Q: What about the inhibition at 2000 g/ha (Cynodon dactyl.) of the same compound?
A: 0%

Q: What about the inhibition at 1000 g/ha (Arachys hypog.) of the same compound?
A: 0%

Q: What about the inhibition at 2000 g/ha (Arachys hypog.) of the same compound?
A: 0%

Q: And the inhibition at 1000 g/ha (Hordeum vulg.; [5])?
A: 10%

Q: And the inhibition at 1000 g/ha (Hordeum vulg.; [6])?
A: 20%

Q: And the inhibition at 2000 g/ha (Hordeum vulg.; [7])?
A: 10%

Q: And the inhibition at 2000 g/ha (Hordeum vulg.; [8])?
A: 20%

Q: And the inhibition at 500 g/ha (Euphorbia geniculata [4])?
A: 0%

Q: What about the inhibition at 1000 g/ha (Euphorbia geniculata [4]) of the same compound?
A: 0%

Q: And the inhibition at 2000 g/ha (Euphorbia geniculata [4])?
A: 0%

Q: And the inhibition at 4000 g/ha (Euphorbia geniculata [4])?
A: 10%

Q: And the inhibition at 500 g/ha (Medicago sativa)?
A: 0%

Q: And the inhibition at 1000 g/ha (Medicago sativa)?
A: 0%

Q: What about the inhibition at 2000 g/ha (Medicago sativa) of the same compound?
A: 0%

Q: And the inhibition at 4000 g/ha (Medicago sativa)?
A: 0%

Q: For `BrC1C(Br)C2CC1C1N=NC21` (stereo not shown) [drawing 430], which “% damage” value (Cyper. esc.; 2.0 kg/ha PRE) is on record?
A: 20%

Q: What about the “% damage” value (Cyper. esc.; 4.0 kg/ha PRE) of the same compound?
A: 55%

Q: What about the “% damage” value (Cyper. esc.; 8.0 kg/ha PRE) of the same compound?
A: 70%

Q: And the “% damage” value (Solan. nig.; 2.0 kg/ha PRE)?
A: 95%

Q: What about the “% damage” value (Solan. nig.; 4.0 kg/ha PRE) of the same compound?
A: 95%

Q: And the “% damage” value (Solan. nig.; 8.0 kg/ha PRE)?
A: 95%

Q: And the “% damage” value (Echin. c.g.; 2.0 kg/ha PRE)?
A: 50%

Q: What about the “% damage” value (Echin. c.g.; 4.0 kg/ha PRE) of the same compound?
A: 80%

Q: What about the “% damage” value (Echin. c.g.; 8.0 kg/ha PRE) of the same compound?
A: 90%

Q: What about the “% damage” value (Setar. spp.; 2.0 kg/ha PRE) of the same compound?
A: 100%

Q: What about the “% damage” value (Setar. spp.; 4.0 kg/ha PRE) of the same compound?
A: 100%

Q: What about the “% damage” value (Setar. spp.; 8.0 kg/ha PRE) of the same compound?
A: 100%

Q: What about the “% damage” value (Lam. spp.; 2.0 kg/ha PRE) of the same compound?
A: 95%

Q: And the “% damage” value (Lam. spp.; 4.0 kg/ha PRE)?
A: 95%

Q: And the “% damage” value (Lam. spp.; 8.0 kg/ha PRE)?
A: 95%
